Reference: PMC8364686, “Safety, tolerability, pharmacokinetics and pharmacodynamics of single oral doses of BI 187004, an inhibitor of 11beta-hydroxysteroid dehydrogenase-1, in healthy male volunteers with overweight or obesity” (Clinical Diabetes and Endocrinology, 2021)

Assay: Plasma pharmacokinetics of BI 187004 after single oral doses (LC–MS/MS)
Settings: male, human, plasma, po; for concentration at 24 h / concentration at 36 h / concentration at 48 h / concentration at 72 h / concentration at 96 h / concentration at 0.5 h / concentration at 1 h / concentration at 1.5 h / concentration at 2 h / concentration at 2.5 h / concentration at 3 h / concentration at 4 h / concentration at 5 h / concentration at 6 h / concentration at 8 h / concentration at 10 h / concentration at 12 h: 10 mg, 10 mg single oral
Experimental: This was a randomized, double-blind, placebo-controlled, single rising dose study conducted at a single center in Germany. […] Follow-up on an ambulatory basis was performed between 11 and 15 days after study drug administration. […] At the time of use the oral solution for dosing was prepared using the PFOS and a co-supplied aqueous solvent containing HP-beta-cyclodextrin 100 mg/mL. The lowest dose level solutions were prepared by further dilution of the lower concentration solution with additional solvent.
For each accepted run, the acceptance criteria for the calibration standards and quality controls were met.

N#Cc1ccc2c(c1)[C@H]1CCCN(C(=O)c3ccc4[nH]cnc4c3)[C@H]1C2 [BI 187004]
concentration at 24 h (Plasma concentration Mean): 76.9 nM
concentration at 36 h (Plasma concentration Mean): 30.2 nM
concentration at 48 h (Plasma concentration Mean): 22.8 nM
concentration at 72 h (Plasma concentration Mean): 10.7 nM
concentration at 96 h (Plasma concentration Mean): 5.72 nM
concentration at 0.5 h (Plasma concentration Median): 363 nM
concentration at 1 h (Plasma concentration Median, 1 h): 413 nM
concentration at 1.5 h (Plasma concentration Median, 1.5 h): 435 nM
concentration at 2 h (Plasma concentration Median, 2 h): 396 nM
concentration at 2.5 h (Plasma concentration Median, 2.5 h): 381 nM
concentration at 3 h (Plasma concentration Median, 3 h): 334 nM
concentration at 4 h (Plasma concentration Median, 4 h): 368 nM
concentration at 5 h (Plasma concentration Median, 5 h): 272 nM
concentration at 6 h (Plasma concentration Median, 6 h): 243 nM
concentration at 8 h (Plasma concentration Median, 8 h): 217 nM
concentration at 10 h (Plasma concentration Median): 179 nM
concentration at 12 h (Plasma concentration Median): 147 nM
concentration at 24 h (Plasma concentration Median): 80 nM
concentration at 36 h (Plasma concentration Median): 29.6 nM
concentration at 48 h (Plasma concentration Median): 22.4 nM
concentration at 72 h (Plasma concentration Median): 9.36 nM
concentration at 96 h (Plasma concentration Median): 5.09 nM
concentration at 0.5 h (Plasma concentration gMean): 279 nM
concentration at 1 h (Plasma concentration gMean, 1 h): 426 nM
concentration at 1.5 h (Plasma concentration gMean, 1.5 h): 435 nM
concentration at 2 h (Plasma concentration gMean, 2 h): 380 nM
concentration at 2.5 h (Plasma concentration gMean, 2.5 h): 372 nM
concentration at 3 h (Plasma concentration gMean, 3 h): 336 nM
concentration at 4 h (Plasma concentration gMean, 4 h): 340 nM
concentration at 5 h (Plasma concentration gMean, 5 h): 270 nM
concentration at 6 h (Plasma concentration gMean, 6 h): 254 nM
concentration at 8 h (Plasma concentration gMean, 8 h): 208 nM
concentration at 10 h (Plasma concentration gMean): 174 nM
concentration at 12 h (Plasma concentration gMean): 140 nM
concentration at 24 h (Plasma concentration gMean): 71.3 nM
concentration at 36 h (Plasma concentration gMean): 26.3 nM
concentration at 48 h (Plasma concentration gMean): 20.5 nM
concentration at 72 h (Plasma concentration gMean): 10.2 nM
concentration at 96 h (Plasma concentration gMean): 5.48 nM
concentration at 1 h (Plasma concentration, individual subjects, planned time 1 h): 519 nM
concentration at 1.5 h (Plasma concentration, individual subjects, planned time 1.5 h): 537 nM
concentration at 2 h (Plasma concentration, individual subjects, planned time 2 h): 437 nM
concentration at 2.5 h (Plasma concentration, individual subjects, planned time 2.5 h): 442 nM
concentration at 3 h (Plasma concentration, individual subjects, planned time 3 h): 405 nM
concentration at 4 h (Plasma concentration, individual subjects, planned time 4 h): 412 nM
concentration at 5 h (Plasma concentration, individual subjects, planned time 5 h): 352 nM
concentration at 6 h (Plasma concentration, individual subjects, planned time 6 h): 353 nM
concentration at 8 h (Plasma concentration, individual subjects, planned time 8 h): 241 nM
AUC(0-inf) (20 mg): 12.4 µM·h
AUC(0-t) (20 mg): 9.45 µM·h
Cmax (20 mg): 1030 nM
Tmax (20 mg): 1.38 h
